In ChEMBL document CHEMBL1136361, “5-amino-1-(2,6-dichloro-4-trifluoromethyl-phenyl)-3-[3H3]-methylsulfanyl-1H-pyrazole-4-carbonitrile (CTOM): synthesis and characterization of a novel and selective insect GABA receptor radioligand” (Bioorg Med Chem Lett, 2003):

Tests used:
[1] = Mortality percent was determined in flea; range is 50-100%; format: ADME; conditions: pulicinae
[2] = In vitro binding affinity against GABA receptor in mouse brain; format: tissue-based
[3] = In vitro binding affinity against GABA receptor in house fly; set-up: species or system Musca domestica

| SMILES | Mortality [1] [%] | Ki [2] [nM] | Ki [3] [nM] |
| --- | --- | --- | --- |
| N#Cc1nn(-c2c(Cl)cc(C(F)(F)F)cc2Cl)c(N)c1[S+]([O-])C(F)(F)F (stereo not drawn) [FIPRONIL] | 50 | – | – |
| CSc1nn(-c2c(Cl)cc(C(F)(F)F)cc2Cl)c(N)c1C#N | – | 4 | 8 |
